From BigSolDB 2.1

CC(N)=S
Settings | solubility (mole fraction)
in 2-butanone, 272.85 K | 0.137
in 2-butanone, 279.35 K | 0.157
in 2-butanone, 282.55 K | 0.167
in 2-butanone, 287.95 K | 0.185
in 2-butanone, 293.35 K | 0.205
in 2-butanone, 297.85 K | 0.223
in 2-butanone, 303.05 K | 0.244
in 2-butanone, 308.55 K | 0.268
in 2-butanone, 313.15 K | 0.289
in 2-butanone, 318.05 K | 0.312
in 2-butanone, 323.95 K | 0.343
in 2-pentanone, 272.85 K | 0.111
in 2-pentanone, 279.35 K | 0.127
in 2-pentanone, 282.55 K | 0.136
in 2-pentanone, 287.95 K | 0.152
in 2-pentanone, 293.35 K | 0.169
in 2-pentanone, 297.85 K | 0.183
in 2-pentanone, 303.05 K | 0.202
in 2-pentanone, 308.55 K | 0.222
in 2-pentanone, 313.15 K | 0.24
in 2-pentanone, 318.05 K | 0.26
in 2-pentanone, 323.95 K | 0.286
in acetone, 272.85 K | 0.144
in acetone, 279.35 K | 0.165
in acetone, 282.55 K | 0.176
in acetone, 287.95 K | 0.195
in acetone, 293.35 K | 0.216
in acetone, 297.85 K | 0.234
in acetone, 303.05 K | 0.257
in acetone, 308.55 K | 0.282
in acetone, 313.15 K | 0.304
in acetone, 318.05 K | 0.329
in acetone, 323.95 K | 0.36
in acetonitrile, 272.85 K | 0.0478
in acetonitrile, 279.35 K | 0.061
in acetonitrile, 282.55 K | 0.0685
in acetonitrile, 287.95 K | 0.0828
in acetonitrile, 293.35 K | 0.0993
in acetonitrile, 297.85 K | 0.115
in acetonitrile, 303.05 K | 0.136
in acetonitrile, 308.55 K | 0.16
in acetonitrile, 313.15 K | 0.184
in acetonitrile, 318.05 K | 0.211
in acetonitrile, 323.95 K | 0.249
in ethanol, 273.15 K | 0.064
in ethanol, 277.95 K | 0.0752
in ethanol, 283.45 K | 0.0901
in ethanol, 288.25 K | 0.105
in ethanol, 293.25 K | 0.122
in ethanol, 298.15 K | 0.141
in ethanol, 302.35 K | 0.159
in ethanol, 308.05 K | 0.186
in ethanol, 313.35 K | 0.214
in ethanol, 318.25 K | 0.243
in ethanol, 323.15 K | 0.274
in ethyl acetate, 272.85 K | 0.0646
in ethyl acetate, 279.35 K | 0.0773
in ethyl acetate, 282.55 K | 0.0843
in ethyl acetate, 287.95 K | 0.0969
in ethyl acetate, 293.35 K | 0.111
in ethyl acetate, 297.85 K | 0.124
in ethyl acetate, 303.05 K | 0.14
in ethyl acetate, 308.55 K | 0.158
in ethyl acetate, 313.15 K | 0.175
in ethyl acetate, 318.05 K | 0.194
in ethyl acetate, 323.95 K | 0.219
in ethyl formate, 272.85 K | 0.0427
in ethyl formate, 279.35 K | 0.0536
in ethyl formate, 282.55 K | 0.0596
in ethyl formate, 287.95 K | 0.0711
in ethyl formate, 293.35 K | 0.0843
in ethyl formate, 297.85 K | 0.0965
in ethyl formate, 303.05 K | 0.113
in ethyl formate, 308.55 K | 0.131
in ethyl formate, 313.15 K | 0.149
in ethyl formate, 318.05 K | 0.17
in ethyl formate, 323.95 K | 0.198
in isobutanol, 273.15 K | 0.0323
in isobutanol, 277.95 K | 0.0401
in isobutanol, 283.45 K | 0.0508
in isobutanol, 288.25 K | 0.0621
in isobutanol, 293.25 K | 0.0761
in isobutanol, 298.15 K | 0.0922
in isobutanol, 302.35 K | 0.108
in isobutanol, 308.05 K | 0.133
in isobutanol, 313.35 K | 0.16
in isobutanol, 318.25 K | 0.189
in isobutanol, 323.15 K | 0.223
in isopentanol, 273.15 K | 0.0333
in isopentanol, 277.95 K | 0.0415
in isopentanol, 283.45 K | 0.0528
in isopentanol, 288.25 K | 0.0648
in isopentanol, 293.25 K | 0.0796
in isopentanol, 298.15 K | 0.0968
in isopentanol, 302.35 K | 0.114
in isopentanol, 308.05 K | 0.141
in isopentanol, 313.35 K | 0.171
in isopentanol, 318.25 K | 0.203
in isopentanol, 323.15 K | 0.239
in isopropanol, 273.15 K | 0.0439
in isopropanol, 277.95 K | 0.0532
in isopropanol, 283.45 K | 0.066
in isopropanol, 288.25 K | 0.0792
in isopropanol, 293.25 K | 0.0949
in isopropanol, 298.15 K | 0.113
in isopropanol, 302.35 K | 0.13
in isopropanol, 308.05 K | 0.158
in isopropanol, 313.35 K | 0.186
in isopropanol, 318.25 K | 0.216
in isopropanol, 323.15 K | 0.251
in methanol, 273.15 K | 0.0894
in methanol, 277.95 K | 0.104
in methanol, 283.45 K | 0.123
in methanol, 288.25 K | 0.141
in methanol, 293.25 K | 0.163
in methanol, 298.15 K | 0.186
in methanol, 302.35 K | 0.208
in methanol, 308.05 K | 0.241
in methanol, 313.35 K | 0.275
in methanol, 318.25 K | 0.31
in methanol, 323.15 K | 0.348
in methyl acetate, 272.85 K | 0.0603
in methyl acetate, 279.35 K | 0.074
in methyl acetate, 282.55 K | 0.0815
in methyl acetate, 287.95 K | 0.0957
in methyl acetate, 293.35 K | 0.112
in methyl acetate, 297.85 K | 0.126
in methyl acetate, 303.05 K | 0.145
in methyl acetate, 308.55 K | 0.167
in methyl acetate, 313.15 K | 0.187
in methyl acetate, 318.05 K | 0.211
in methyl acetate, 323.95 K | 0.242
in n-butanol, 273.15 K | 0.0417
in n-butanol, 277.95 K | 0.0524
in n-butanol, 283.45 K | 0.0674
in n-butanol, 288.25 K | 0.0833
in n-butanol, 293.25 K | 0.103
in n-butanol, 298.15 K | 0.126
in n-butanol, 302.35 K | 0.149
in n-butanol, 308.05 K | 0.186
in n-butanol, 313.35 K | 0.227
in n-butanol, 318.25 K | 0.271
in n-butanol, 323.15 K | 0.321
in n-pentanol, 273.15 K | 0.0507
in n-pentanol, 277.95 K | 0.0598
in n-pentanol, 283.45 K | 0.0716
in n-pentanol, 288.25 K | 0.0835
in n-pentanol, 293.25 K | 0.0975
in n-pentanol, 298.15 K | 0.113
in n-pentanol, 302.35 K | 0.127
in n-pentanol, 308.05 K | 0.149
in n-pentanol, 313.35 K | 0.172
in n-pentanol, 318.25 K | 0.196
in n-pentanol, 323.15 K | 0.222
in n-propanol, 273.15 K | 0.0503
in n-propanol, 277.95 K | 0.0608
in n-propanol, 283.45 K | 0.0748
in n-propanol, 288.25 K | 0.0891
in n-propanol, 293.25 K | 0.106
in n-propanol, 298.15 K | 0.126
in n-propanol, 302.35 K | 0.144
in n-propanol, 308.05 K | 0.173
in n-propanol, 313.35 K | 0.203
in n-propanol, 318.25 K | 0.236
in n-propanol, 323.15 K | 0.272
